One data set has as its system MV4-11 cells. Briefly: Cell viability assay (CellTiter-Glo), MV4-11. The conditions noted are these: Homo sapiens, MV4-11, 24 hours, 1% FBS, read-out: Average pCC50 by molecule MV4-11 (converted). Type of data set: cell-based. The source says: (§1) The effect of various compounds of the invention on the viability of MV4-11 and ARH-77 cell lines was investigated, using the CTG protocol described below.
(§2) MV4-11 cell lines are derived from acute myeloid leukaemia and it is described in the literature as a MCL-1 dependent cell line, as opposed to lymphoblast-like ARH-77 cell line, which is described as independent of MCL-1 (Tron A E et al. Nat Commun. 2018; 9: 5341; Caenepeel S et al. Cancer Discov. 2018 December; 8(12): 1582-1597).
(§3) Cells (MV4-11 or ARH-77) were seeded on […] in a growth medium with 1% FBS. Next, compound stocks were pre-diluted in DMSO and added directly to the cell culture media (final DMSO concentration: 0.5%). Compound concentrations used in this assay: 1/3 dilutions starting at 30 μM (9 to 12 points). After 24 hours of incubation, cell viability was evaluated using CellTiter-Glo Luminescent Cell Viability Assay (Promega, cat #G7572). The luminescence signal was measured using a CLARIOstar Plus Multi-Mode Microplate Reader (574-590 nm).
(§4) Results were normalized to DMSO control. Collected data were analyzed using GraphPad Prism to calculate pCC50 values.

A short description of data set [1]: Cell viability assay (CellTiter-Glo), ARH-77. Type of data set: cell-based. The conditions noted are these: human, ARH-77 cells (lymphoblast-like, MCL-1 independent), ARH-77, 24 hours, 1% FBS, read-out: Average pCC50 by molecule ARH-77 (converted).
Description: as §1, §2, §3, §4

For data set [2], the target named is [MCL-1]-[compound of formula (I)]—[CRBN/DDB1] (Homo sapiens, UniProt Q07820+Q96SW2). Briefly: HTRF ternary complex formation assay. Type of data set: binding. The conditions noted are these: hMcl-1 and CRBN, 180 min at 25° C.; read-out: HTRF ternary complex Average pEC50 by molecule (converted). On the procedure: The effect of the bifunctional compounds of the invention on the formation of a ternary complex composed of [MCL-1]-[compound of formula (I)]—[CRBN/DDB1] was investigated with HTRF ternary complex assay.
Sequence of [MCL-1]-[compound of formula (I)]—[CRBN/DDB1] (Q07820 whole entry): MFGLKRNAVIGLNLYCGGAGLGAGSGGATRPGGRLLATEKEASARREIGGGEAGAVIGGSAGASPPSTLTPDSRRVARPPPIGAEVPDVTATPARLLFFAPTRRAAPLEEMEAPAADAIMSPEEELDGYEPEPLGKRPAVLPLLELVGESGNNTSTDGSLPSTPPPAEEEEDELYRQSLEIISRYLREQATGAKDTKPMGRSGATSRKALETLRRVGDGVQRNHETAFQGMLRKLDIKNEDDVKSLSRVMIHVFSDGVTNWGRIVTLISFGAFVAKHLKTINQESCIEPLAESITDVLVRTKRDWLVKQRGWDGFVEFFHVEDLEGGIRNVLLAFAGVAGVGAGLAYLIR
Sequence of [MCL-1]-[compound of formula (I)]—[CRBN/DDB1] (Q96SW2 whole entry): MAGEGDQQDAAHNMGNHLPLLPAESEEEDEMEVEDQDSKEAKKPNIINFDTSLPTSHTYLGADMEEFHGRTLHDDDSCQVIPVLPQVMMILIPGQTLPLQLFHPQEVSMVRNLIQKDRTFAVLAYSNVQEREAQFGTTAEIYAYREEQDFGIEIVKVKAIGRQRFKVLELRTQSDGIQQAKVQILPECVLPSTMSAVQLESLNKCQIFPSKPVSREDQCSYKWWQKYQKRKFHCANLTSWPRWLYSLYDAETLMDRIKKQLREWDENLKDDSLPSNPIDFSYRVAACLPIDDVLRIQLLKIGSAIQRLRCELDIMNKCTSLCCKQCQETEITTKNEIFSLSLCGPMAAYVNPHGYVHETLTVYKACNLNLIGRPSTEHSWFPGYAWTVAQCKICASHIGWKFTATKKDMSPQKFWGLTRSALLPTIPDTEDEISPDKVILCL
Sequence of [MCL-1]-[compound of formula (I)]—[CRBN/DDB1] (Q16531 whole entry partner): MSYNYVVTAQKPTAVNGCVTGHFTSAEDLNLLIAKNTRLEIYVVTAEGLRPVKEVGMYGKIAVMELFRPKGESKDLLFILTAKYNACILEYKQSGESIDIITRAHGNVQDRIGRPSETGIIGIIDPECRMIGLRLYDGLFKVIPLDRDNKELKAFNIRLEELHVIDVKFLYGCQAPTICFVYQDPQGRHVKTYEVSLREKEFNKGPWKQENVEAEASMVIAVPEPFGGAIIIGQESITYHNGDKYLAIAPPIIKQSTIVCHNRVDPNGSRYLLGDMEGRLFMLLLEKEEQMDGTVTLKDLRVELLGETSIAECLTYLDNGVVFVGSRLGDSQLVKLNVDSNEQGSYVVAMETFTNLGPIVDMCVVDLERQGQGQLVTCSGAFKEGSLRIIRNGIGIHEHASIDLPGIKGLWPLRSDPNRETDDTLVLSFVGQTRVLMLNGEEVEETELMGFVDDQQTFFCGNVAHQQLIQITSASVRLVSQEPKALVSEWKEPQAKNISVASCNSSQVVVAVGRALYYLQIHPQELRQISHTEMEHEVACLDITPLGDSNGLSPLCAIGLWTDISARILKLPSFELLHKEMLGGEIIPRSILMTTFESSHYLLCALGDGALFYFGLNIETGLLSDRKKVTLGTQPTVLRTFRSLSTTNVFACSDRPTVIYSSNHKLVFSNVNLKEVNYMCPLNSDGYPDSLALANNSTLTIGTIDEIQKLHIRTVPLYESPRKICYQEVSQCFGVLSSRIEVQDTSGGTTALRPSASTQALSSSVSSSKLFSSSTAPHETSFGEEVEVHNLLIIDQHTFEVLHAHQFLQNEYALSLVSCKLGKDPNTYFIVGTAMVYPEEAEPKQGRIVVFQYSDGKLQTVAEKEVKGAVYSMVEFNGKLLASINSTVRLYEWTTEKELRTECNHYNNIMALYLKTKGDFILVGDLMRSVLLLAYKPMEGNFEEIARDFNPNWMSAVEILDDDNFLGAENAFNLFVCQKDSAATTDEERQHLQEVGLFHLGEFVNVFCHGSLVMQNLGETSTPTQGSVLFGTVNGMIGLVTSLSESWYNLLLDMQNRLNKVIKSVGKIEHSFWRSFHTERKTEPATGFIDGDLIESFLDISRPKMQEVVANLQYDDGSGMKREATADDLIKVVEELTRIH
Mix of protein solution was prepared: • 48 nM hMcl-1 and 105.6 nM CRBN were prepared in PPI Europium detection buffer with 2 mM DTT. • Acceptor and donor stock solutions were diluted 100 times in PPI Europium detection buffer. Equal volumes of both reagents were mixed. Finally giving 3 nM of Streptavidin-Eu cryptate ([…]) and 6.67 nM of Anti-6×his-d2 ([…]).
5 μl of protein mix was dispensed to all wells. The tested compounds in dose-response were dispensed onto a white 384-well low volume plate (Greiner, 784075). DMSO was backfilled to all wells, resulting in a final DMSO content of 0.5%. Wells containing only DMSO served as a background. Next, 5 μl of solution with donor and acceptor was added to the wells.
The plate was sealed with transparent film and shaken using a VibroTurbulator for 60 sec at level 3. The plate was then spun down shortly (10 s, 1000 rcf) and incubated at 25° C. for 180 min.
The read-out was performed with plate reader (Pherastar, BMG Labtech) in time resolved fluorescence mode. Filterset: TR 337 665 620.
The results were analyzed as follows: • 1) an average of fluorescence for background signal was calculated and used as a negative control; • 2) raw fluorescence values for tested compounds were normalized against negative controls; • 3) bell shape curve was fitted to a gaussian distribution using a non-linear least squares Gauss-Newton algorithm; • 4) EC50 and pEC50 values were determined.

Molecules are shown by their SMILES. Where only a bound is given, the exact number is not on record here.

In the case of `Cc1nn(C)c(C)c1-c1c(Cl)ccc2c(CCCOc3cccc4cc(F)ccc34)c(C(=O)O)n(CCN3CCC(CN4CCN(c5ccc6c(c5)C(C)N(C5CCC(=O)NC5=O)C6=O)CC4)CC3)c12` (mixture of isomers) [Compound 145, 6-Chloro-1-(2-(4-((4-(2-(2,6-dioxopiperidin-3-yl)-3-methyl-1-oxoisoindolin-5-yl)piperazin-1-yl)methyl)piperidin-1-yl)ethyl)-3-(3-((6-fluoronaphthalen-1-yl)oxy)propyl)-7-(1,3,5-trimethyl-1H-pyrazol-4-yl)-1H-indole-2-carboxylic acid], in the data set with MV4-11 cells, the CC50 is less than 100 nM. In data set [1], the CC50 at 24 h was more than 10000 nM. Also, the EC50 in data set [2] is less than 31.6 nM.

Take `Cc1nn(C)c(C)c1-c1c(Cl)ccc2c(CCCOc3cccc4cc(F)ccc34)c(C(=O)O)n(CCN3CCN(C(=O)Cn4c(C)nc5c(C(=O)NC6CCC(=O)NC6=O)ccc(F)c54)CC3)c12` (stereo not shown) [Compound 1, 6-Chloro-1-(2-(4-(2-(4-((2,6-dioxopiperidin-3-yl)carbamoyl)-7-fluoro-2-methyl-1H-benzo[d]imidazol-1-yl)acetyl)piperazin-1-yl)ethyl)-3-(3-((6-fluoronaphthalen-1-yl)oxy)propyl)-7-(1,3,5-trimethyl-1H-pyrazol-4-yl)-1H-indole-2-carboxylic acid]: the CC50 in the data set on MV4-11 cells is less than 100 nM. Also, the CC50 at 24 h in data set [1] is more than 10000 nM. Besides, the EC50 in data set [2] was less than 100 nM.

For the compound `Cc1nc2c(C(=O)NC3CCC(=O)NC3=O)cc(OCC(=O)N3CCN(CCn4c(C(=O)O)c(CCCOc5cccc6cc(F)ccc56)c5ccc(Cl)c(-c6c(C)nn(C)c6C)c54)CC3)cc2[nH]1` (stereo not shown) [Compound 2, 6-Chloro-1-(2-(4-(2-((4-((2,6-dioxopiperidin-3-yl)carbamoyl)-2-methyl-1H-benzo[d]imidazol-6-yl)oxy)acetyl)piperazin-1-yl)ethyl)-3-(3-((6-fluoronaphthalen-1-yl)oxy)propyl)-7-(1,3,5-trimethyl-1H-pyrazol-4-yl)-1H-indole-2-carboxylic acid], the CC50 with MV4-11 cells is less than 100 nM. In addition, in data set [1], the CC50 at 24 h was more than 10000 nM. In data set [2], the EC50 is less than 100 nM.

Turning to `Cc1nc2c(C(=O)NC3CCC(=O)NC3=O)cc(OCCC(=O)N3CCN(CCn4c(C(=O)O)c(CCCOc5cccc6cc(F)ccc56)c5ccc(Cl)c(-c6c(C)nn(C)c6C)c54)CC3)cc2[nH]1` (stereo not shown) [Compound 3, 6-Chloro-1-(2-{4-[3-({4-[(2,6-dioxopiperidin-3-yl)carbamoyl]-2-methyl-1H-1,3-benzodiazol-6-yl}oxy)propanoyl]piperazin-1-yl}ethyl)-3-{3-[(6-fluoronaphthalen-1-yl)oxy]propyl}-7-(1,3,5-trimethyl-1H-pyrazol-4-yl)-1H-indole-2-carboxylic acid], in the data set with MV4-11 cells, the CC50 is less than 100 nM. In data set [1], the CC50 at 24 h is more than 31600 nM. Besides, in data set [2], the EC50 was less than 100 nM.

For the compound `Cc1nc2ccc(C(=O)NCC(=O)N3CCN(CCn4c(C(=O)O)c(CCCOc5cccc6cc(F)ccc56)c5ccc(Cl)c(-c6c(C)nn(C)c6C)c54)CC3)cc2cc1C1CCC(=O)NC1=O` (stereo not shown) [Compound 5, 6-Chloro-1-{2-[4-(2-{[3-(2,6-dioxopiperidin-3-yl)-2-methylquinolin-6-yl]formamido}acetyl)piperazin-1-yl]ethyl}-3-{3-[(6-fluoronaphthalen-1-yl)oxy]propyl}-7-(1,3,5-trimethyl-1H-pyrazol-4-yl)-1H-indole-2-carboxylic acid], in data set [1], the CC50 at 24 h is more than 10000 nM. Moreover, the EC50 in data set [2] is less than 100 nM.

For `Cc1nn(C)c(C)c1-c1c(Cl)ccc2c(CCCOc3cccc4cc(F)ccc34)c(C(=O)O)n(CCN3CCN(C(=O)COc4cc(N(C)C)cc5c4CN(C4CCC(=O)NC4=O)C5=O)CC3)c12` (stereo not shown) [Compound 13, 6-Chloro-1-{2-[4-(2-{[6-(dimethylamino)-2-(2,6-dioxopiperidin-3-yl)-1-oxo-2,3-dihydro-1H-isoindol-4-yl]oxy}acetyl)piperazin-1-yl]ethyl}-3-{3-[(6-fluoronaphthalen-1-yl)oxy]propyl}-7-(1,3,5-trimethyl-1H-pyrazol-4-yl)-1H-indole-2-carboxylic acid], the CC50 at 24 h in data set [1] is more than 10000 nM. Besides, the EC50 in data set [2] is less than 316 nM.

`CCc1c(OCC(=O)N2CCN(CCn3c(C(=O)O)c(CCCOc4cccc5cc(F)ccc45)c4ccc(Cl)c(-c5c(C)nn(C)c5C)c43)CC2)cccc1C(=O)NC1CCC(=O)NC1=O` (stereo not shown) [Compound 24, 6-Chloro-1-{2-[4-(2-{3-[(2,6-dioxopiperidin-3-yl)carbamoyl]-2-ethylphenoxy}acetyl)piperazin-1-yl]ethyl}-3-{3-[(6-fluoronaphthalen-1-yl)oxy]propyl}-7-(1,3,5-trimethyl-1H-pyrazol-4-yl)-1H-indole-2-carboxylic acid]: the CC50 at 24 h in data set [1] was more than 10000 nM.

On to `CCc1cc(OCC(=O)N2CCN(CCn3c(C(=O)O)c(CCCOc4cccc5cc(F)ccc45)c4ccc(Cl)c(-c5c(C)nn(C)c5C)c43)CC2)ccc1C(=O)NC1CCC(=O)NC1=O` (stereo not shown) [Compound 25, 6-Chloro-1-(2-(4-(2-(4-((2,6-dioxopiperidin-3-yl)carbamoyl)-3-ethylphenoxy)acetyl)piperazin-1-yl)ethyl)-3-(3-((6-fluoronaphthalen-1-yl)oxy)propyl)-7-(1,3,5-trimethyl-1H-pyrazol-4-yl)-1H-indole-2-carboxylic acid], for which the CC50 at 24 h in data set [1] was more than 3160 nM.

With `Cc1nn(C)c(C)c1-c1c(Cl)ccc2c(CCCOc3cccc4cc(F)ccc34)c(C(=O)O)n(CCN3CCN(CC(=O)NCc4ccc5c(c4)CN(C4CCC(=O)NC4=O)C5=O)CC3)c12` (stereo not shown) [Compound 26, 6-Chloro-1-(2-{4-[({[2-(2,6-dioxopiperidin-3-yl)-1-oxo-2,3-dihydro-1H-isoindol-5-yl]methyl}carbamoyl)methyl]piperazin-1-yl}ethyl)-3-{3-[(6-fluoronaphthalen-1-yl)oxy]propyl}-7-(1,3,5-trimethyl-1H-pyrazol-4-yl)-1H-indole-2-carboxylic acid], in data set [1], the CC50 at 24 h was more than 31600 nM. Besides, the EC50 in data set [2] is less than 100 nM.

As to `Cc1cc(OCCCc2c(C(=O)O)n(CCN3CCN(CC(=O)NCc4ccc5c(c4)CN(C4CCC(=O)NC4=O)C5=O)CC3)c3c(-c4c(C)nn(C)c4C)c(Cl)ccc23)cc(C)c1Cl` (stereo not shown) [Compound 27, 6-Chloro-3-[3-(4-chloro-3,5-dimethylphenoxy)propyl]-1-(2-{4-[({[2-(2,6-dioxopiperidin-3-yl)-1-oxo-2,3-dihydro-1H-isoindol-5-yl]methyl}carbamoyl)methyl]piperazin-1-yl}ethyl)-7-(1,3,5-trimethyl-1H-pyrazol-4-yl)-1H-indole-2-carboxylic acid], in data set [2], the EC50 is less than 100 nM.

With `Cc1nn(C)c(C)c1-c1c(Cl)ccc2c(CCCOc3cccc4cc(F)ccc34)c(C(=O)O)n(CCN3CCN(CC(=O)Nc4cccc5c4CN(C4CCC(=O)NC4=O)C5=O)CC3)c12` (stereo not shown) [Compound 29, 6-Chloro-1-{2-[4-({[2-(2,6-dioxopiperidin-3-yl)-1-oxo-2,3-dihydro-1H-isoindol-4-yl]carbamoyl}methyl)piperazin-1-yl]ethyl}-3-{3-[(6-fluoronaphthalen-1-yl)oxy]propyl}-7-(1,3,5-trimethyl-1H-pyrazol-4-yl)-1H-indole-2-carboxylic acid], the CC50 at 24 h in data set [1] was more than 10000 nM. The EC50 in data set [2] was less than 100 nM.

With `Cc1nc2c(NCC(=O)N3CCN(CCn4c(C(=O)O)c(CCCOc5cccc6cc(F)ccc56)c5ccc(Cl)c(-c6c(C)nn(C)c6C)c54)CC3)cccc2cc1N1CCC(=O)NC1=O` [Compound 146, 6-Chloro-1-(2-(4-((3-(2,4-dioxotetrahydropyrimidin-1(2H)-yl)-2-methylquinolin-8-yl)glycyl)piperazin-1-yl)ethyl)-3-(3-((6-fluoronaphthalen-1-yl)oxy)propyl)-7-(1,3,5-trimethyl-1H-pyrazol-4-yl)-1H-indole-2-carboxylic acid], the CC50 with MV4-11 cells was less than 100 nM. For the same compound, the EC50 in data set [2] is less than 31.6 nM.

The values are drawn from US20260248927A1, “TARGETED PROTEIN DEGRADATION USING BIFUNCTIONAL COMPOUNDS THAT BIND UBIQUITIN LIGASE AND TARGET MCL-1 PROTEIN” (Captor Therapeutics S.A., priority 2022, published 2026).
